Data on 6 molecules can be found in patent publication US7432375B2, “JNK inhibitors” (Eisai R & D Management Co., Ltd., priority 2003, dated 2008).

Format in all cases: biochemical
The target of one assay is JNK2 (Homo sapiens, UniProt P45984). Briefly: JNK2 SPA assay. The settings on record: phosphorylation of GST-c-Jun, 3.33 μM ATP. The method, then:
(§1) JNK1, JNK2, JNK3—SPA Assay
(§2) • 1. Compound is dissolved in DMSO to a convenient concentration and this is diluted in 10% DMSO to a five times concentrate of the desired starting concentration (frequently 1:100). • 2. 10 μl of 500 mM EDTA is added to alternative wells of the Opti-plate row, which will receive kinase reaction plus DMSO. This creates the negative control. • 3. For the JNK2 and JNK3 assay, compounds are prepared in six 2-fold dilutions with water and each concentration is tested in duplicate. For the JNK1 assay compounds are prepared in four 5-fold dilutions with water which are tested in triplicate. Controls are treated identically. • 4. 20 μl per well of each compound concentration is transferred to an Opti-plate, in duplicate. • 5. 30 μl (JNK2/3 SPA) or 50 μl (JNK1 SPA) of substrate solution (25 mM HEPES pH 7.5, 10 mM magnesium acetate with 3.33 μM ATP (JNK2/3) or 2 μM ATP (JNK1), approximately 7.5 kBq [γ-^33P] ATp, GST-c-Jun, in water) is added to each well. • 6. 50 μl (JNK2/3 SPA) or 30 μl (JNK1 SPA) of kinase solution (JNK in 25 mM HEPES pH 7.5, 10 mM Mg Acetate) is added to each well.
(§3) • 7. The plate is incubated for 30 minutes at room temperature. • 8. 100 μl of bead/stop solution is added to each well (5 mg/ml glutathione-PVT-SPA beads, 40 mM ATP in PBS). • 9. Plates are sealed and incubated for 30 minutes at room temperature, centrifuged for 10 minutes at 2500 g and counted. • 10. The IC50 values are calculated as the concentration of the compound being tested at which the phosphorylation of c-Jun is decreased to 50% of the control value.

A further assay addresses T1, p38 MAP kinase (Homo sapiens, UniProt Q16539).
T1 construct: purchased Upstate
The assay is described as follows: p38 ELISA. The settings on record: phosphorylation of GST-ATF2, 50 μM ATP. The method, then: Active p38 kinase (100 ng; Upstate) was added to 2 μg GST-ATF2 substrate (NEB) in 250 mM Hepes pH 7.5/100 mM MgAc/50 μM ATP (final) in the presence or absence of compounds in 50 μl. The mixture was incubated at 30° C. for 1 hour, and then diluted with 200 μl PBS-Tween (0.05%). From this, duplicate volumes of 100 μl were added to a Reacti-Bind glutathione coated plate (Pierce) and incubated for 1 hour. After washing 3 times with PBS-Tween (0.05%), rabbit anti-phospho-ATF2 (Thr71) antibody (NEB) was added at 1:500, and incubated for another hour at room temperature. After 3 additional washes with PBS-Tween (0.05%), […] anti-rabbit IgG alkaline phosphatase-conjugated secondary antibody (Sigma) was added at 1:1000, the reaction was incubated for a further hour, washed 3 times, and then phosphatase substrate (Sigma) was added (100 μl per well; 3 tablets in 5 ml water). After incubation in the dark at 37° C. for 1 hour, the reaction mixture was transferred to a clear 96 well plate, and the absorbance at 405 nm was read.
The IC50 values are calculated as the concentration of the compound being tested at which the phosphorylation of ATF2 is decreased to 50% of the control value.
(In general: In an ELISA, binding on a coated surface is turned into a signal by an enzyme label.)

The next assay addresses JNK3 (Homo sapiens, UniProt P53779). The assay is described as follows: JNK3 SPA assay. The settings on record: phosphorylation of GST-c-Jun, 3.33 μM ATP. The method, then:
as §1, §2, §3

For a further assay, the target named is JNK1 (Homo sapiens, UniProt P45983). The assay is described as follows: JNK1 SPA assay. The note with it: phosphorylation of GST-c-Jun, 2 μM ATP. The protocol: as §1, §2, §3
Chain of JNK1 (P45983 whole entry): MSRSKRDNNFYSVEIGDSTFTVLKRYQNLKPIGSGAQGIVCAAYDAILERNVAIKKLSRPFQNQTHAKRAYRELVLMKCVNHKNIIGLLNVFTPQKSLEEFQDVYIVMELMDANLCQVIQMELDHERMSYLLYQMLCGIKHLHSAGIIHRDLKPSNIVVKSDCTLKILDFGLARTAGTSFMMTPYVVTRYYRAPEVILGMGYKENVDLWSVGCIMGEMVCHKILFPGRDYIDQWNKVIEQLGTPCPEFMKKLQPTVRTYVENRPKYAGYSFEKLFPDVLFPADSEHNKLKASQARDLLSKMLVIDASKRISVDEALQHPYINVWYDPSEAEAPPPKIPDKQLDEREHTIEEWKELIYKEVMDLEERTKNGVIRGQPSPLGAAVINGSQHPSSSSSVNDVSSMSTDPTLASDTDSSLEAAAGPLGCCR

What is called IC50 is the concentration that gives 50% inhibition.

Chain of JNK3 (P53779 whole entry): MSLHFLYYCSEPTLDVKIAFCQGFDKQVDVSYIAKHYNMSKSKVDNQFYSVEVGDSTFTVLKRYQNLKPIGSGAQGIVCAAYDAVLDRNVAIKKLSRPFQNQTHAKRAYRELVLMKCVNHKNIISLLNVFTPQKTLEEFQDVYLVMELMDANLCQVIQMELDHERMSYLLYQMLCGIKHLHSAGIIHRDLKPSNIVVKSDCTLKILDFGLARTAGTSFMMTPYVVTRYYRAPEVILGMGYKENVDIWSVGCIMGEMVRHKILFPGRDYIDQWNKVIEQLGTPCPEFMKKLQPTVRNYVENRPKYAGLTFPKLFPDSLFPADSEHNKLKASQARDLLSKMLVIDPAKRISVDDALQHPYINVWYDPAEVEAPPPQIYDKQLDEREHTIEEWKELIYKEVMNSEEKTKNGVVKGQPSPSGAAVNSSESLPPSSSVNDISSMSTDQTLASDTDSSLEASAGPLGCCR
T1 sequence (Q16539 whole entry): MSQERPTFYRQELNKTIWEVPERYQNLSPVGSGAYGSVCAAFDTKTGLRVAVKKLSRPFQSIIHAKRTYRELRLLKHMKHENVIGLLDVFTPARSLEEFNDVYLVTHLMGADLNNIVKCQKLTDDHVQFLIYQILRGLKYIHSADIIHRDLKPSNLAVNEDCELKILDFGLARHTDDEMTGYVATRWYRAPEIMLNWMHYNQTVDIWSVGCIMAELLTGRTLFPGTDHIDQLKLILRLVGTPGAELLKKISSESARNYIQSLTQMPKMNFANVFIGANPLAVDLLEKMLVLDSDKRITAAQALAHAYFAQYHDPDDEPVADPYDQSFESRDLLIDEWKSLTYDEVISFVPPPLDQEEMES
Chain of JNK2 (P45984 whole entry): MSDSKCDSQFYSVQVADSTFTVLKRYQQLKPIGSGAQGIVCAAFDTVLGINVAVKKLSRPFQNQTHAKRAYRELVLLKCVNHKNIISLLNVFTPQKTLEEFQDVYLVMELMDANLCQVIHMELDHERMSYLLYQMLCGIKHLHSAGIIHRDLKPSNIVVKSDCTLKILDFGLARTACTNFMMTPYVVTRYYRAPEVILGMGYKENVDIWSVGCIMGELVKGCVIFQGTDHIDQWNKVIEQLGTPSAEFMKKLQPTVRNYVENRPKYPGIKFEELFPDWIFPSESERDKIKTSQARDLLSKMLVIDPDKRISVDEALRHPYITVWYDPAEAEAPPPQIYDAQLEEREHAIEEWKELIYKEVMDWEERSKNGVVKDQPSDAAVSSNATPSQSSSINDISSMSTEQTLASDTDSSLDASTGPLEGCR

`CN(C)c1ccc(-c2cnc3[nH]cc(-c4ccoc4)c3c2)cc1`: the 50% inhibitory concentration (IC50) against JNK2 was less than 500 nM; at p38 MAP kinase it was more than 10000 nM; on JNK3, less than 500 nM; on JNK1, less than 500 nM.

Take `c1csc(-c2cnc3[nH]cc(-c4ccoc4)c3c2)c1`: the IC50 against JNK2 is less than 500 nM; against p38 MAP kinase, more than 10000 nM; at JNK3, less than 500 nM; on JNK1, less than 500 nM.

As to `CN(C)c1ccc(-c2cnc3[nH]cc(-c4cc[nH]c4)c3c2)cc1`, the IC50 against JNK3 is less than 500 nM.

As to `c1csc(-c2cnc3[nH]cc(-c4cncs4)c3c2)c1`, the IC50 on JNK2 is less than 500 nM; against p38 MAP kinase, more than 10000 nM; against JNK3, less than 500 nM; on JNK1, less than 500 nM.

Turning to `Fc1cccc(-c2c[nH]c3ncc(-c4ccccc4Oc4ccccc4)cc23)c1`, on JNK3, the IC50 is less than 500 nM.

In the case of `c1ccc(Oc2ccccc2-c2cnc3[nH]cc(-c4ccccc4)c3c2)cc1`, the IC50 at JNK3 is less than 500 nM.
